# Columns and labels:
# [1] = target: T1, Single-strand selective monofunctional uracil DNA glycosylase (Homo sapiens) (UniProt Q53HV7); conditions: Compound Concentration 10.0 uM, Hit No;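 further: enzymatic SMUG1 assay coupled with APE1, reading fluorescence at 594 nm released when a quenched double-stranded DNA oligonucleotide substrate is cleaved and separated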
# T1 sequence (whole entry): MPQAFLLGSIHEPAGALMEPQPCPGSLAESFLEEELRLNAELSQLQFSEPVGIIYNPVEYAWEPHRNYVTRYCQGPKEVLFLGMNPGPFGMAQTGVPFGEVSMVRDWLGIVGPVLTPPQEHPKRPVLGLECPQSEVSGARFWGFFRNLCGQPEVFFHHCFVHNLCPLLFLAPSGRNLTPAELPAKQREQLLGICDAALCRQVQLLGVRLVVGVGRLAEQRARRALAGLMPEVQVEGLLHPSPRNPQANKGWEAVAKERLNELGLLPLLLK
# Description: Inhibition of SMUG1 by quantifying inhibition of SMUG1-mediated cleavage and dissociation of quenched duplex DNA oligonucleotides, measured as fluorescence at 594 nm. To generate a functional strand incision and increase turn-over this assay is coupled to APE1.
# [2] = target: Endonuclease 8-like 1 (Homo sapiens) (UniProt Q96FI4); conditions: Compound Concentration 10.0 uM, Hit No;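 further: fluorescence at 594 nm from quenched duplex DNA oligonucleotides released by NEIL1 cleavage and strand separation, reported as reduction of this enzyme activity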
# Description: Inhibition of NEIL1 by quantifying inhibition of NEIL1-mediated cleavage and dissociation of quenched duplex DNA oligonucleotides, measured as fluorescence at 594 nm.
# [3] = target: DNA-3-methyladenine glycosylase (Homo sapiens) (UniProt P29372); conditions: Compound Concentration 10.0 uM, Hit No;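 further: enzyme assay where MPG cuts a quenched duplex DNA oligonucleotide probe, paired with APE1 for strand incision and turnover, read as fluorescence at 594 nm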
# Description: Inhibition of MPG by quantifying inhibition of MPG-mediated cleavage and dissociation of quenched duplex DNA oligonucleotides, measured as fluorescence at 594 nm. To generate a functional strand incision and increase turn-over this assay is coupled to APE1.
# [4] = target: T2, Endonuclease 8-like 2 (Homo sapiens) (UniProt Q969S2); conditions: Compound Concentration 10.0 uM, Hit No;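 further: fluorescence at 594 nm reports NEIL2 cutting and release of a quenched double-stranded DNA oligo substrate, reduced signal read as inhibition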
# T2 sequence (whole entry): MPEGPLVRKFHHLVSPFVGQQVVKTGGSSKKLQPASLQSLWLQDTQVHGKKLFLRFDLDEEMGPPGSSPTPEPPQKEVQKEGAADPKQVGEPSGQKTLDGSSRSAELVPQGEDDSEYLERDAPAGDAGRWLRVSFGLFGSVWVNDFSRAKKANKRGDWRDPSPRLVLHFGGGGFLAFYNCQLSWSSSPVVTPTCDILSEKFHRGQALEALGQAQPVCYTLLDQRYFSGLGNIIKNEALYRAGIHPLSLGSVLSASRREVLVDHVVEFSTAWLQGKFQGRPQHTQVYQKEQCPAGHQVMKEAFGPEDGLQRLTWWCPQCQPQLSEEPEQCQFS
# Description: Inhibition of NEIL2 by quantifying inhibition of NEIL2-mediated cleavage and dissociation of quenched duplex DNA oligonucleotides, measured as fluorescence at 594 nm.
# [5] = target: T3, Endonuclease III-like protein 1 (Homo sapiens) (UniProt P78549); conditions: Compound Concentration 10.0 uM, Hit No;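 further: enzyme assay tracking NTHL1 cutting and release of a quenched double-stranded DNA oligo substrate, read as fluorescence at 594 nm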
# T3 sequence (whole entry): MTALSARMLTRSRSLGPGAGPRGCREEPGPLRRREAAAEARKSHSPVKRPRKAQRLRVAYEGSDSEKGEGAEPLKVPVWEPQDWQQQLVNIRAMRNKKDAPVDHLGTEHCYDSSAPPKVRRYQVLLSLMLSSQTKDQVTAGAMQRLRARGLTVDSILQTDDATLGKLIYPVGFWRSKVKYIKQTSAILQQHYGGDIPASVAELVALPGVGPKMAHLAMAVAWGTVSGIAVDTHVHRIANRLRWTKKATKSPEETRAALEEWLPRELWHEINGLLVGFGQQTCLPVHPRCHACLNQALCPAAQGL
# Description: Inhibition of NTHL1 by quantifying inhibition of NTHL1-mediated cleavage and dissociation of quenched duplex DNA oligonucleotides, measured as fluorescence at 594 nm.
# [6] = target: G/T mismatch-specific thymine DNA glycosylase (Homo sapiens) (UniProt Q13569); conditions: Compound Concentration 10.0 uM;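 further: human TDG cleavage of quenched duplex DNA oligonucleotides coupled to APE1, strand release read as fluorescence at 594 nm, inhibition of TDG activity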
# Description: Inhibition of TDG by quantifying inhibition of TDG-mediated cleavage and dissociation of quenched duplex DNA oligonucleotides, measured as fluorescence at 594 nm. To generate a functional strand incision and increase turn-over this assay is coupled to APE1.
# [7] = target: Methyl-CpG-binding domain protein 4 (Homo sapiens) (UniProt O95243); conditions: Compound Concentration 10.0 uM, Hit No;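 further: MBD4 activity read as fluorescence at 594 nm from cleavage and release of a quenched duplex DNA oligonucleotide, with APE1 coupled to incise the strand and raise turnover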
# Description: Inhibition of MBD4 by quantifying inhibition of MBD4-mediated cleavage and dissociation of quenched duplex DNA oligonucleotides, measured as fluorescence at 594 nm. To generate a functional strand incision and increase turn-over this assay is coupled to APE1.
# [8] = target: T4, Adenine DNA glycosylase (Homo sapiens) (UniProt Q9UIF7); conditions: Compound Concentration 10.0 uM, Hit No;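 further: human MUTYH activity read as 594 nm fluorescence from cleavage and release of a quenched DNA duplex, coupled with APE1 for strand incision, lower signal meaning inhibition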
# T4 sequence (whole entry): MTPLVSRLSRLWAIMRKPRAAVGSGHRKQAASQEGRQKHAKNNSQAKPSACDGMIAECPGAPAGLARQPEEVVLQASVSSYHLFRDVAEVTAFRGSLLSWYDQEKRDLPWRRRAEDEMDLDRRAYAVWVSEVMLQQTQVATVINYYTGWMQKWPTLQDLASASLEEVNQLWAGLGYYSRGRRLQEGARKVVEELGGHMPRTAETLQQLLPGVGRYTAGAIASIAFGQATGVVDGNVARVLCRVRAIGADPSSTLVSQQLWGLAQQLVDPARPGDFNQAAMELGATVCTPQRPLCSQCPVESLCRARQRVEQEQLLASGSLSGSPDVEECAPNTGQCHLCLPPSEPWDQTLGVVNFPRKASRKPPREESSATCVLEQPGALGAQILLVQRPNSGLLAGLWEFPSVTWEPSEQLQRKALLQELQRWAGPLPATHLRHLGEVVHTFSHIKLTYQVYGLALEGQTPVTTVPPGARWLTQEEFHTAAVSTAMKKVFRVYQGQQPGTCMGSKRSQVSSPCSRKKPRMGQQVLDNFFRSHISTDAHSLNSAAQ
# Description: Inhibition of MUTYH by quantifying inhibition of MUTYH-mediated cleavage and dissociation of quenched duplex DNA oligonucleotides, measured as fluorescence at 594 nm. To generate a functional strand incision and increase turn-over this assay is coupled to APE1.
# [9] = target: Uracil-DNA glycosylase (Homo sapiens) (UniProt P13051); conditions: Compound Concentration 10.0 uM, Hit No;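 further: UNG excision on a quenched double-stranded DNA oligo probe, with APE1 added for strand incision and turnover, read as fluorescence at 594 nm as strands separate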
# Description: Inhibition of UNG by quantifying inhibition of UNG-mediated cleavage and dissociation of quenched duplex DNA oligonucleotides, measured as fluorescence at 594 nm. To generate a functional strand incision and increase turn-over this assay is coupled to APE1.
# [10] = target: N-glycosylase/DNA lyase (Homo sapiens) (UniProt O15527); conditions: Compound Concentration 10.0 uM;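 further: OGG1 cleavage of a quenched duplex DNA oligonucleotide, coupled to APE1 for strand incision, read as fluorescence at 594 nm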
# Chain of N-glycosylase/DNA lyase (Homo sapiens) (O15527 whole entry): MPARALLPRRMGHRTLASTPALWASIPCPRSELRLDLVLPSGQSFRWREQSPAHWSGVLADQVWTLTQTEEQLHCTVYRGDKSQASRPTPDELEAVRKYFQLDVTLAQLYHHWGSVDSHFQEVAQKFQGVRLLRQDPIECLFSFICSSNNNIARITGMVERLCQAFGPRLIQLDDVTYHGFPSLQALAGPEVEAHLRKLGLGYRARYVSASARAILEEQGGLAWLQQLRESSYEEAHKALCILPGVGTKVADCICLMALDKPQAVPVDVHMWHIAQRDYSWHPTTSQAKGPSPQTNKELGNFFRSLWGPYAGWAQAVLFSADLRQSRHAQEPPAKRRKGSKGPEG
# Description: Inhibition of OGG1 by quantifying inhibition of OGG1-mediated cleavage and dissociation of quenched duplex DNA oligonucleotides, measured as fluorescence at 594 nm. To generate a functional strand incision and increase turn-over this assay is coupled to APE1.
# Chain of G/T mismatch-specific thymine DNA glycosylase (Homo sapiens) (Q13569 whole entry, the tested form may be a part): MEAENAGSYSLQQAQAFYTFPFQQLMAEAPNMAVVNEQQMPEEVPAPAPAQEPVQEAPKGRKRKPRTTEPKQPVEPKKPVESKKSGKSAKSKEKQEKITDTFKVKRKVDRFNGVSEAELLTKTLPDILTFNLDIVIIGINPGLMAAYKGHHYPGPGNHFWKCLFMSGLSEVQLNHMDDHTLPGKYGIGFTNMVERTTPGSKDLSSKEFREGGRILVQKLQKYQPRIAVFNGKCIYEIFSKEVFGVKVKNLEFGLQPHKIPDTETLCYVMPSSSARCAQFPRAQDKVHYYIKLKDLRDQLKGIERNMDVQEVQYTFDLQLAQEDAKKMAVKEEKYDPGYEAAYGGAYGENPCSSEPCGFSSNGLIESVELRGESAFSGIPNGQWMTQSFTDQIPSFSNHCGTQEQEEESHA
# Chain of Uracil-DNA glycosylase (Homo sapiens) (P13051 whole entry): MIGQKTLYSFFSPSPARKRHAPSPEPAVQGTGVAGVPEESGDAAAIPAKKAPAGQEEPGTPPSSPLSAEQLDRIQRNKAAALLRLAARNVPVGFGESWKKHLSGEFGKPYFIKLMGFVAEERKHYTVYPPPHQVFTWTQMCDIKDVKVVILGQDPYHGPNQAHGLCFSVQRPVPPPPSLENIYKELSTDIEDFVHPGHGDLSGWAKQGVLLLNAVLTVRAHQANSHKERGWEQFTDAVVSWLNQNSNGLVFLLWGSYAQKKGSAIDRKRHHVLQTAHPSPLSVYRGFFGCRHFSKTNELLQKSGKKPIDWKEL
# Chain of DNA-3-methyladenine glycosylase (Homo sapiens) (P29372 whole entry): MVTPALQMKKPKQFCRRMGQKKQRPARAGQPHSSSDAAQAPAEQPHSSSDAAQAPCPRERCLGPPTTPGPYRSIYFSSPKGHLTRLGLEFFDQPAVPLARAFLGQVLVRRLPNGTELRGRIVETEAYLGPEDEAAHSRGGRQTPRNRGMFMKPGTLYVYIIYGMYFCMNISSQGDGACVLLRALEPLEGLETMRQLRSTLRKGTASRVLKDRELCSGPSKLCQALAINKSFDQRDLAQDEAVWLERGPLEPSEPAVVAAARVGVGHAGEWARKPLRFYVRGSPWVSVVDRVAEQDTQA
# Chain of Methyl-CpG-binding domain protein 4 (Homo sapiens) (O95243 whole entry, the tested form may be a part): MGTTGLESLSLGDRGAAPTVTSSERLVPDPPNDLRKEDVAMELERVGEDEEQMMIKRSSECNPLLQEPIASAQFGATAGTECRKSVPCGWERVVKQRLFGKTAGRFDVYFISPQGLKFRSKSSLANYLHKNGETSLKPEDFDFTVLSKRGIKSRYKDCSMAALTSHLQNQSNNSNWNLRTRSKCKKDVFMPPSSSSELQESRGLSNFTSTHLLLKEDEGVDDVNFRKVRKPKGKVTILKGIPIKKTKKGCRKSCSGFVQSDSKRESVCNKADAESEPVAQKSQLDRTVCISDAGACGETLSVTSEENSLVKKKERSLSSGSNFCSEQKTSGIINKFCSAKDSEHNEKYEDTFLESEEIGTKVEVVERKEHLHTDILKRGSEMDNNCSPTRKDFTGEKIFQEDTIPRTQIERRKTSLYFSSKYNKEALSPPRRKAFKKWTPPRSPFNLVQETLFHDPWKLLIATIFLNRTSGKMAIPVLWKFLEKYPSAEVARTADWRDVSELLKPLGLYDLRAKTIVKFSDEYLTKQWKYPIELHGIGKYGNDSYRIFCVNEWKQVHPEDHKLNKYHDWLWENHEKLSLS
# Chain of Endonuclease 8-like 1 (Homo sapiens) (Q96FI4 whole entry): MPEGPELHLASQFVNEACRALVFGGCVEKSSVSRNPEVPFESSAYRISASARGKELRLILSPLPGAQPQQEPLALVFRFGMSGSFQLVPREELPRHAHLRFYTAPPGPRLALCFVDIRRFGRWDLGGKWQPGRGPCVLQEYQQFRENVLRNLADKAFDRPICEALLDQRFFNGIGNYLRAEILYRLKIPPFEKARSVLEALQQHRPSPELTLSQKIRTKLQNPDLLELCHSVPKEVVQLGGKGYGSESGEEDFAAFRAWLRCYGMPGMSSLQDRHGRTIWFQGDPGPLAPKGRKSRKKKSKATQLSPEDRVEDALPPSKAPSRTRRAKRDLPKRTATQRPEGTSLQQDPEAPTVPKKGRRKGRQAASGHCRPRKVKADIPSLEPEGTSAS
Structure (SMILES),inhibition [1] [%],inhibition [2] [%],inhibition [3] [%],inhibition [4] [%],inhibition [5] [%],inhibition ([6]; Hit No) [%],inhibition [7] [%],inhibition [8] [%],inhibition [9] [%],inhibition ([10]; Hit No) [%],inhibition ([6]; Hit Yes) [%],inhibition ([10]; Hit Yes) [%]
NC(=O)c1cc(-c2ccc(S(=O)(=O)[C@H]3CC[C@H](Nc4ccc(C(F)(F)F)cn4)CC3)cc2)ccn1,12.2,11,-6.62,9.33,17.1,8.07,10.9,25.9,4.02,-3,–,–
CN1CCC(c2c[nH]c3ccc(O)cc23)CC1,-3.74,-2.51,-0.341,-2.39,12.9,22.5,8.69,-5.79,-5.58,-0.678,–,–
COc1ccc(OC)c(-c2ccc(NC(=O)c3ccncc3F)cc2)c1,24.3,3.57,28,-1.37,-0.258,15.8,23.8,-1.87,2.08,1.6,–,–
O=[N+]([O-])c1ccc2nc(COCc3nc4ccc([N+](=O)[O-])cc4[nH]3)[nH]c2c1,4.96,12.5,18.4,2.2,0.568,27.1,19.9,6.46,0.834,7,–,–
CCC(C)(C)/N=C(\NC#N)Nc1cccnc1,-2.33,1.64,6.03,-1.62,21.2,5.61,4.69,4.93,-3.3,-5.35,–,–
N[C@@H](Cn1cc(F)c(=O)[nH]c1=O)C(=O)O,-7.64,-2.06,0.976,–,0.568,12.4,3.94,6.98,-5.2,-9.73,–,–
CCCCc1nc(Cl)c(CO)n1Cc1ccc(-c2ccccc2-c2nnn[nH]2)cc1,-6.19,-2.87,-2.79,–,11.4,8.31,1.95,4.88,-9.96,-0.971,–,–
CCCNS(=O)(=O)Nc1ncnc(OCCOc2ncc(Br)cn2)c1-c1ccc(Br)cc1,-4.93,-4.06,19,2.51,7.05,18.3,24.4,26.1,–,2.2,–,–
CC(C)(O)c1ccccc1CC[C@@H](SCC1(CC(=O)O)CC1)c1cccc(/C=C/c2ccc3ccc(Cl)cc3n2)c1,11.9,–,53.9,14,9.99,–,56.1,47.1,8.83,–,66.5,61.2
Cc1cc(C)cc(-c2cnc3cc(Cl)c(-c4cccc(O)c4)cc3c2OCCCN)c1,14.7,–,9.86,2.26,-4.67,24.4,9.27,-5.74,-7.52,-3.25,–,–
CCCCCNC(=O)NS(=O)(=O)c1cc([N+](=O)[O-])ccc1NC1CCCCC1,13.9,-1.39,19.1,14.5,14.4,23.6,22.7,30.5,–,8.51,–,–
COc1ccc2c(c1)C(C(=O)N(Cc1ccc(N(C)C)cc1)c1ccc(C(C)C)cc1)CCC2 (stereo not drawn),-6.91,4.6,34.2,–,0.568,15.3,26.8,34.4,-2.75,3.53,–,–
N=C(N)NC(=O)Cc1c(Cl)cccc1Cl,3.31,10.8,-0.939,12.5,20.2,3.06,-6.99,-4.2,–,-0.992,–,–
COc1ccc2[nH]c(I)c(CCNC(C)=O)c2c1,-7.64,-5.77,-6.47,–,-1.91,3.33,8.97,10.2,-9.84,-3.69,–,–
CSc1cc2c(cc1C(F)(F)F)N(C(=O)Nc1cccnc1)CC2,4.28,6.91,-3.29,16.2,5.59,11.2,-9.84,-9.06,–,-1.82,–,–
COc1cc(N)c(Cl)cc1C(=O)NC1CN2CCC1CC2 (stereo not drawn),-3.07,-0.139,-7.22,–,17.1,-0.441,-9.33,0.595,-6.64,1,–,–
Cc1cccc(C2CN(C)CCc3c2cc(O)c(O)c3Cl)c1 (stereo not drawn),-3.57,-4.88,15,–,7.17,27.7,26.4,33.4,-2.8,-8.27,–,–
COc1cccc([C@H](O)C2CCN(CCc3ccc(F)cc3)CC2)c1OC,4.47,-1.98,-10,-8.72,3.39,22.3,14.4,-6.25,–,-1.39,–,–
CN[C@@H]1Cc2cccc3[nH]c(=O)n(c23)C1,0.551,-2.21,-1.72,–,21.2,15.8,11.7,46.8,-3.54,-6.94,–,–
CCCCC[C@H](O)/C=C/[C@H]1[C@H](O)CC(=O)[C@@H]1CCCCCCC(=O)O,-7.25,4.31,6.53,–,22.9,19.5,3.22,-0.521,-7.06,-9.68,–,–
Cc1nnn(-c2ccc(-c3ccc(C4(C(=O)O)CC4)cc3)cc2)c1NC(=O)O[C@H](C)c1ccccc1,4.91,-1.39,13.9,4.01,-7.6,20.7,34.4,17.2,–,-1.41,–,–
O=C(NCCNCC(O)COc1ccc(O)cc1)N1CCOCC1 (stereo not drawn),-1.43,1.79,-2.83,–,8,9.41,9.4,-0.651,-5.67,-7.78,–,–

# Source: ChEMBL document CHEMBL5665443, “Enzyme Inhibitor Single Concentration assay results for EUbOPEN Chemogenomics Library” (2024)
